The experiment concerns Alginate lyase from Bacillus stearothermophilus. Kind of experiment: Effects of chemicals commonly used in water cooling systems on alginate lyase activity. It is filed as biochemical. The conditions noted are these: for Inhibition (%) of Chemicals on Enzyme Activity: chemical at 10 mM final concentration, 16 hours incubation; for inhibition of the enzyme (in words): mineral content of cooling water. On the procedure:
Alginate lyase activity (increase in optical density at 230 nm) at 55° C. was monitored with sodium alginate as the substrate. Constant amounts of substrate, enzyme and MgCl2 (10 mM) were present in all reactions. Citrate-phosphate buffer was used between pH 5.0 and 6.5 and phosphate buffer was used between pH 6.0 and 8.0.
EDTA (ethylene diamine tetraacetate), NaCl, FeSO4, NaAlO2, Na2 MoO4, Zn, glutaraldehyde hydrazine and sodium nitrite were tested at the final concentration of 10 mM. Alginate lyase activity was monitored as described in Example 2 over 16 hours incubation.

Regarding `O=C(O)CN(CCN(CC(=O)O)CC(=O)O)CC(=O)O` [EDTA, ethylene diamine tetraacetate], the “Inhibition (%) of Chemicals on Enzyme Activity” value (“Inhibition (%) of Chemicals” for short) turned out to be 0%.

On to `O=S(=O)([O-])[O-].[Fe+2]` [FeSO4], for which the “Inhibition (%) of Chemicals” value came to 0%.

Take `[Na+].[Na+].[O]=[Mo](=[O])([O-])[O-]` [Na2 MoO4]: the “Inhibition (%) of Chemicals” value is given as 0%.

For the compound `[Na+].[O]=[Al-]=[O]` [NaAlO2], the “Inhibition (%) of Chemicals” value is listed as 0%.

Take `[Cl-].[Na+]` [NaCl]: the “Inhibition (%) of Chemicals” value is 48.7% and the “inhibition of the enzyme (in words)” value is given as “partially inhibit”.

Take `O=N[O-].[Na+]` [NaNO2, sodium nitrite]: the “Inhibition (%) of Chemicals” value is 0%.

As for `[Zn]` [Zn], the “Inhibition (%) of Chemicals” value turned out to be 43.7% and the “inhibition of the enzyme (in words)” value is listed as “partially inhibit”.

Consider `O=CCCCC=O` [glutaraldehyde], for which the “Inhibition (%) of Chemicals” value is 0%.

For the compound `NN` [hydrazine], the “Inhibition (%) of Chemicals” value is 0%.

Source of the values: patent US5139945A, “Thermostable alginate lyase from Bacillus steraothermophilus” (Novo Industri A/S, priority 1988, dated 1992).
